Reference: ChEMBL document CHEMBL4304811, “Development of a Water-Soluble Indolylmaleimide Derivative IM-93 Showing Dual Inhibition of Ferroptosis and NETosis” (ACS Med Chem Lett, 2019)
Active and inactive are the calls of the source. No cut-off for these calls is given here.

Key:
[1] = molecular target: Dual specificity tyrosine-phosphorylation-regulated kinase 2 (Homo sapiens) (UniProt Q92630); assay: Binding affinity to wild-type human full length DYRK2 (M1 to S528 residues) expressed in mammalian expression system assessed as residual binding level at 10 uM by Kinomescan method relative to control
[2] = molecular target: Serine/threonine-protein kinase PLK2 (Homo sapiens) (UniProt Q9NYY3); assay: Binding affinity to wild-type human partial length PLK2 (H58 to F354 residues) expressed in mammalian expression system assessed as residual binding level at 10 uM by Kinomescan method relative to control
[3] = molecular target: MAP kinase-interacting serine/threonine-protein kinase 2 (Homo sapiens) (UniProt Q9HBH9); assay: Binding affinity to wild-type human partial length MKNK2 (G63 to S388 residues) expressed in mammalian expression system assessed as residual binding level at 10 uM by Kinomescan method relative to control
[4] = system: Proto-oncogene tyrosine-protein kinase receptor Ret (Homo sapiens), P07949 [M918T]; assay: Binding affinity to human partial length RET M918T mutant (E713 to D1014 residues) expressed in bacterial expression system assessed as residual binding level at 10 uM by Kinomescan method relative to control
[5] = molecular target: Mitogen-activated protein kinase 7 (Homo sapiens) (UniProt Q13164); assay: Binding affinity to wild-type human partial length ERK5 (M1 to A409 residues) expressed in bacterial expression system assessed as residual binding level at 10 uM by Kinomescan method relative to control
[6] = system: Phosphatidylinositol 4,5-bisphosphate 3-kinase catalytic subunit alpha isoform (Homo sapiens), P42336 [H1047L]; assay: Binding affinity to human partial length PIK3CA H1047L mutant (R108 to N1068 residues) expressed in mammalian expression system assessed as residual binding level at 10 uM by Kinomescan method relative to control
[7] = molecular target: Mitogen-activated protein kinase kinase kinase 3 (Homo sapiens) (UniProt Q99759); assay: Binding affinity to wild-type human partial length MAP3K3 (E320 to Y626 residues) expressed in mammalian expression system assessed as residual binding level at 10 uM by Kinomescan method relative to control
[8] = molecular target: Phosphatidylinositol 4,5-bisphosphate 3-kinase catalytic subunit alpha isoform (Homo sapiens) (UniProt P42336); assay: Binding affinity to wild-type human partial length PIK3CA (R108 to N1068 residues) expressed in mammalian expression system assessed as residual binding level at 10 uM by Kinomescan method relative to control
[9] = molecular target: Serine/threonine-protein kinase PAK 4 (Homo sapiens) (UniProt O96013); assay: Binding affinity to wild-type human partial length PAK4 (Q144 to R438 residues) expressed in bacterial expression system assessed as residual binding level at 10 uM by Kinomescan method relative to control
[10] = molecular target: Cyclin-dependent kinase 16 (Homo sapiens) (UniProt Q00536); assay: Binding affinity to wild-type human partial length PCTK1 (G160 to A474 residues) expressed in mammalian expression system assessed as residual binding level at 10 uM by Kinomescan method relative to control
[11] = molecular target: Tyrosine-protein kinase Fes/Fps (Homo sapiens) (UniProt P07332); assay: Binding affinity to wild-type human partial length FES (I527 to R822 residues) expressed in bacterial expression system assessed as residual binding level at 10 uM by Kinomescan method relative to control
[12] = system: Hepatocyte growth factor receptor (Homo sapiens), P08581 [M1250T]; assay: Binding affinity to human partial length MET M1250T mutant (D1010 to S1367 residues) expressed in bacterial expression system assessed as residual binding level at 10 uM by Kinomescan method relative to control
[13] = molecular target: MAP/microtubule affinity-regulating kinase 4 (Homo sapiens) (UniProt Q96L34); assay: Binding affinity to wild-type human partial length MARK4 (K29 to G340 residues) expressed in bacterial expression system assessed as residual binding level at 10 uM by Kinomescan method relative to control
[14] = molecular target: Receptor tyrosine-protein kinase erbB-3 (Homo sapiens) (UniProt P21860); assay: Binding affinity to wild-type human partial length ERBB3 (G684 to A987 residues) expressed in mammalian expression system assessed as residual binding level at 10 uM by Kinomescan method relative to control
[15] = molecular target: BDNF/NT-3 growth factors receptor (Homo sapiens) (UniProt Q16620); assay: Binding affinity to wild-type human partial length TRKB (Q547 to G838 residues) expressed in mammalian expression system assessed as residual binding level at 10 uM by Kinomescan method relative to control
[16] = molecular target: Mitogen-activated protein kinase kinase kinase 19 (Homo sapiens) (UniProt Q56UN5); assay: Binding affinity to wild-type human partial length YSK4 (T1019 to H1328 residues) expressed in mammalian expression system assessed as residual binding level at 10 uM by Kinomescan method relative to control
[17] = molecular target: Mitogen-activated protein kinase kinase kinase kinase 5 (Homo sapiens) (UniProt Q9Y4K4); assay: Binding affinity to wild-type human partial length MAP4K5 (M1 to P297 residues) expressed in bacterial expression system assessed as residual binding level at 10 uM by Kinomescan method relative to control
[18] = molecular target: Tyrosine-protein kinase JAK1 (Homo sapiens) (UniProt P23458); assay: Binding affinity to wild-type human partial length JAK1 JH1 catalytic domain (V856 to K1154 residues) expressed in bacterial expression system assessed as residual binding level at 10 uM by Kinomescan method relative to control
THP-1 = assay: Inhibition of Pseudomonas aeruginosa-induced pyroptosis in human THP1 cells at 10 uM preincubated for 1 hr followed by bacterial infection and measured after 2 hrs by INT dye based LDH assay; assay type: functional, cell-based
[19] = system: Tyrosine-protein kinase ABL1 (Homo sapiens), P00519 [Q252H]; assay: Binding affinity to human non-phosphorylated ABL1 Q252H mutant (S229 to K512 residues) expressed in mammalian expression system assessed as residual binding level at 10 uM by Kinomescan method relative to control
[20] = molecular target: Serine/threonine-protein kinase ULK1 (Homo sapiens) (UniProt O75385); assay: Binding affinity to wild-type human partial length ULK1 (M1 to T309 residues) expressed in mammalian expression system assessed as residual binding level at 10 uM by Kinomescan method relative to control
[21] = molecular target: Serine/threonine-protein kinase 25 (Homo sapiens) (UniProt O00506); assay: Binding affinity to wild-type human partial length YSK1 (V14 to H295 residues) expressed in bacterial expression system assessed as residual binding level at 10 uM by Kinomescan method relative to control
[22] = molecular target: Dual specificity mitogen-activated protein kinase kinase 7 (Homo sapiens) (UniProt O14733); assay: Binding affinity to wild-type human full length MKK7 (M1 to R419 residues) expressed in mammalian expression system assessed as residual binding level at 10 uM by Kinomescan method relative to control
[23] = molecular target: Casein kinase I isoform epsilon (Homo sapiens) (UniProt P49674); assay: Binding affinity to wild-type human full length CSNK1E (M1 to K416 residues) expressed in bacterial expression system assessed as residual binding level at 10 uM by Kinomescan method relative to control

Serine/threonine-protein kinase PLK2 (Homo sapiens), sequence (Q9NYY3 whole entry, looked up, the tested form may be a part): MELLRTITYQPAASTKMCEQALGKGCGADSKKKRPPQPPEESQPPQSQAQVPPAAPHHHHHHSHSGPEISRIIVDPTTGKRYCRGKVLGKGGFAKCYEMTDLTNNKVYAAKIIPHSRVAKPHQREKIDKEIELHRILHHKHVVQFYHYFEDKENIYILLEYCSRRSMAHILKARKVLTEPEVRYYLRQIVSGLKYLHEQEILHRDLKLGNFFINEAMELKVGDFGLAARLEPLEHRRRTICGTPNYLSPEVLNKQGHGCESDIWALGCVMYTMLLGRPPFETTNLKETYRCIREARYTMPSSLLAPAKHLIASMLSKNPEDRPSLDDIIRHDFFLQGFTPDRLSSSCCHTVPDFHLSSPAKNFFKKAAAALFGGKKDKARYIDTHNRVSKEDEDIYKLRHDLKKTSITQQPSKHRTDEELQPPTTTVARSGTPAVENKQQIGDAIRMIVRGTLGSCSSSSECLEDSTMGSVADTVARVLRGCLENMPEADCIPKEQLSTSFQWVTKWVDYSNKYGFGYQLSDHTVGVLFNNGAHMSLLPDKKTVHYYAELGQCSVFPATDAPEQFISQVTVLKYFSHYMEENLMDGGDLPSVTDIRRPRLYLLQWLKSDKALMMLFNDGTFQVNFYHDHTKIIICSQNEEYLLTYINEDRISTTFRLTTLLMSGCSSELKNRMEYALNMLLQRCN
Serine/threonine-protein kinase PAK 4 (Homo sapiens), sequence (O96013 whole entry, looked up, the tested form may be a part): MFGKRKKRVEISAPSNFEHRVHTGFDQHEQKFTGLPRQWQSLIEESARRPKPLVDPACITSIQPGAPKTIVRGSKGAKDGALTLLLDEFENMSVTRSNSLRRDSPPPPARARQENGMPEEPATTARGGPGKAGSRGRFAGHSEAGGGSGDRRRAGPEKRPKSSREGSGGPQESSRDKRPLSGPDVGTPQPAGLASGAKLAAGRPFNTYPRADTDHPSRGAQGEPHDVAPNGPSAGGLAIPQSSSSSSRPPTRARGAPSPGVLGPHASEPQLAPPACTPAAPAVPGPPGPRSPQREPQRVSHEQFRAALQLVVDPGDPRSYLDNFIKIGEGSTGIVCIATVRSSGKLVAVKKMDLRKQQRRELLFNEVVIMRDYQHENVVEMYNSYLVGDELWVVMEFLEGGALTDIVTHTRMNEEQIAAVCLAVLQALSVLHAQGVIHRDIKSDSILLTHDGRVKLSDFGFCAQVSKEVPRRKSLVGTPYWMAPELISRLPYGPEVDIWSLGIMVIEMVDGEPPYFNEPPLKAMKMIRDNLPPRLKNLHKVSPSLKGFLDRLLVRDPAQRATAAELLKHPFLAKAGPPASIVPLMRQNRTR
Dual specificity tyrosine-phosphorylation-regulated kinase 2 (Homo sapiens), sequence (Q92630 whole entry, the tested form may be a part): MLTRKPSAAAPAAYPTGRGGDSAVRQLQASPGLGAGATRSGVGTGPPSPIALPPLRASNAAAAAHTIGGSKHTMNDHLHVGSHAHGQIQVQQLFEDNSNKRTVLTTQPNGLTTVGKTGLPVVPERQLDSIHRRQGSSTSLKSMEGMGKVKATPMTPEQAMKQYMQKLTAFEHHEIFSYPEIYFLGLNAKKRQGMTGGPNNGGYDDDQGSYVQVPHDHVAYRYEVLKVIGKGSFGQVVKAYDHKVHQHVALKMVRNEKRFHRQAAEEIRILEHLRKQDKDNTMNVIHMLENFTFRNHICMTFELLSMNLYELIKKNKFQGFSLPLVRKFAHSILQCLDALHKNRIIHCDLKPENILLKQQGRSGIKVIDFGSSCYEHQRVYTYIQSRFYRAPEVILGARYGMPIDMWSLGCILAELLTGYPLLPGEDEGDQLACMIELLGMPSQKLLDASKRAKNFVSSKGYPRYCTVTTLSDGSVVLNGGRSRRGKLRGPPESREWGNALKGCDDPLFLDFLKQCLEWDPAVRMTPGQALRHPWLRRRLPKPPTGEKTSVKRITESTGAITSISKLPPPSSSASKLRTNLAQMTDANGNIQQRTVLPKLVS
Tyrosine-protein kinase Fes/Fps (Homo sapiens), sequence (P07332 whole entry, the tested form may be a part): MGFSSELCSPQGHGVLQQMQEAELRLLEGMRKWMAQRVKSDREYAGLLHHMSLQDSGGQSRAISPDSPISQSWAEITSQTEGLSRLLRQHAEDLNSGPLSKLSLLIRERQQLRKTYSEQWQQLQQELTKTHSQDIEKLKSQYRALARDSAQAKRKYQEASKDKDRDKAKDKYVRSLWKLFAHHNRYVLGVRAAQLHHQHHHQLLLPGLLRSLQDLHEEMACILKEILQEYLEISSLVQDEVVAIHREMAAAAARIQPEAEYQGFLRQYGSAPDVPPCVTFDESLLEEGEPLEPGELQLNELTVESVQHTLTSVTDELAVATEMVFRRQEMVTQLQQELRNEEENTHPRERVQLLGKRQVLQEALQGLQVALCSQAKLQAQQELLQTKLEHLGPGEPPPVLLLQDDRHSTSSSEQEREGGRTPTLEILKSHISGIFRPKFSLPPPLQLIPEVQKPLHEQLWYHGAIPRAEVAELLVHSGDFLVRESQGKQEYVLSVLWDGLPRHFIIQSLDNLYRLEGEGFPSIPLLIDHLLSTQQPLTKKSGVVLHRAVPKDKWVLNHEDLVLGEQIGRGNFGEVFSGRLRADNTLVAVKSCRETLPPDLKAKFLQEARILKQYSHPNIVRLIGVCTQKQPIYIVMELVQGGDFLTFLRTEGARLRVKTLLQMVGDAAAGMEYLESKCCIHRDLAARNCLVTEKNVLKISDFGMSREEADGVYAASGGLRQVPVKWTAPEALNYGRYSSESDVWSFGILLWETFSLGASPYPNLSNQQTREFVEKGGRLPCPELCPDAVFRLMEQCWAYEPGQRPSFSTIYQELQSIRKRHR
Phosphatidylinositol 4,5-bisphosphate 3-kinase catalytic subunit alpha isoform (Homo sapiens), sequence (P42336 whole entry, the tested form may be a part, canonical isoform): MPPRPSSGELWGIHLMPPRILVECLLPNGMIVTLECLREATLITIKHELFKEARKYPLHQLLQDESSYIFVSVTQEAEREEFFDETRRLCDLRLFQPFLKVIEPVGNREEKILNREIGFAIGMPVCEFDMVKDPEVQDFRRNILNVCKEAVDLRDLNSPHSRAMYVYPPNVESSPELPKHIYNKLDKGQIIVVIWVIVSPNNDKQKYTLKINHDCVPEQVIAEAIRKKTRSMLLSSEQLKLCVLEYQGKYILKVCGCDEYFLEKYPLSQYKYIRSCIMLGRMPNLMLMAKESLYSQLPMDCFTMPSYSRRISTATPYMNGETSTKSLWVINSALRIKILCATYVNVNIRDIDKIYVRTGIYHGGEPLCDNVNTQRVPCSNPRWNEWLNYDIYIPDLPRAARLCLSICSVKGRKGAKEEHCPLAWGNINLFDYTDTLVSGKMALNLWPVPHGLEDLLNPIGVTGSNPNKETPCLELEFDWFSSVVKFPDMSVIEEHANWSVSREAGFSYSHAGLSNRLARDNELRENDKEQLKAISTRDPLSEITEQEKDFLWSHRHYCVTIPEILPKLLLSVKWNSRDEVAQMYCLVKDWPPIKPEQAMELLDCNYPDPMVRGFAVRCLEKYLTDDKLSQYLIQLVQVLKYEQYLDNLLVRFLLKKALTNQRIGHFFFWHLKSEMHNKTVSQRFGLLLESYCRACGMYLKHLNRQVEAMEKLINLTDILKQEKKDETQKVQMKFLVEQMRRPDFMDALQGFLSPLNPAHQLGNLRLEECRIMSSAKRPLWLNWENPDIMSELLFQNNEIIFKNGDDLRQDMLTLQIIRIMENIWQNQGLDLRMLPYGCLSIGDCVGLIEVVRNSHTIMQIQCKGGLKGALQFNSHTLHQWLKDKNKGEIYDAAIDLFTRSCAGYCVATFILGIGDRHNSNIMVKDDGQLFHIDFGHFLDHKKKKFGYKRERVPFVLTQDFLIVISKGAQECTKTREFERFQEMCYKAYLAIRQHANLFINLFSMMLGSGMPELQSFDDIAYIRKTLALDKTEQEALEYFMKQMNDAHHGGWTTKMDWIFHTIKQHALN
Cyclin-dependent kinase 16 (Homo sapiens), sequence (Q00536 whole entry, the tested form may be a part): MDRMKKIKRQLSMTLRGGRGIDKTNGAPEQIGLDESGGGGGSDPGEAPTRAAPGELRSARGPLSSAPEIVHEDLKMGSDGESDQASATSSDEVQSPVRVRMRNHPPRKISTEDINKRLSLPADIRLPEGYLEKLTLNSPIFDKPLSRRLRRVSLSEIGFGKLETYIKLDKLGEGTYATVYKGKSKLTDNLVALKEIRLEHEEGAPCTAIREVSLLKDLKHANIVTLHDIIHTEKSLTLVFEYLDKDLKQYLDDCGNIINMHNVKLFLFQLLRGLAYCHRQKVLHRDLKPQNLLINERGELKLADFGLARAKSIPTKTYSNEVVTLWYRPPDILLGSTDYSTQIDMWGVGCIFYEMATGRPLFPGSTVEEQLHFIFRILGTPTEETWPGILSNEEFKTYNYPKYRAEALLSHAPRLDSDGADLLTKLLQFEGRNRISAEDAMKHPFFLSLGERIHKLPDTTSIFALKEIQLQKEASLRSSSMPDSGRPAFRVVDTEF
MAP kinase-interacting serine/threonine-protein kinase 2 (Homo sapiens), sequence (Q9HBH9 whole entry, looked up, the tested form may be a part): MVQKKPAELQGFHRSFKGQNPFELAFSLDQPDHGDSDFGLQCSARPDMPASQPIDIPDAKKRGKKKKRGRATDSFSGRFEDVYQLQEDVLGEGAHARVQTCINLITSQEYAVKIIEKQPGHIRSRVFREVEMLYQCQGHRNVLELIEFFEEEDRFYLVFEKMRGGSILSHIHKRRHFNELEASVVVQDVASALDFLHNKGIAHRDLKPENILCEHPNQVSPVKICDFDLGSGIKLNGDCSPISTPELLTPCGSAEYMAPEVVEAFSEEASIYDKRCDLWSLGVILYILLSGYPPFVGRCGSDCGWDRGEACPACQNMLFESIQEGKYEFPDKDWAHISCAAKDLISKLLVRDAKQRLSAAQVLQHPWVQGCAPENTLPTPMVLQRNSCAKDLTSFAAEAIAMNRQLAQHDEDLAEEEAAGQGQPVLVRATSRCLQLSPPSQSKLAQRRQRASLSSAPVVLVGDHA

`CC(C)N1C(=O)C(NCCCN(C)C)=C(c2cn(C)c3ccccc23)C1=O.Cl` gave an Activity [1] of 87%, an Activity [2] of 97% and an Activity [3] of 87%. For the same compound, the Activity [4] was 86%, the Activity [5] was 100% and the Activity [6] was 78%. It also gave an Activity [7] of 100%, an Activity [8] of 76% and an Activity [9] of 89%. For the same compound, the Activity [10] was 92%, the Activity [11] was 100% and the Activity [12] was 100%. For the same compound, the Activity [13] was 64%, the Activity [14] was 93% and the Activity [15] was 94%. It also gave an Activity [16] of 96%, an Activity [17] of 100% and an Activity [18] of 89%. The inhibition (THP-1) was “inactive”, the Activity [19] was 100% and the Activity [20] was 79%. For the same compound, the Activity [21] was 94%, the Activity [22] was 88% and the Activity [23] was 89%.
